For orientation: half-life means the time needed for the level to fall by half in the phase considered.

The values that follow come from patent US20150141336A1, “Pancreatic Peptide Compounds and Use” (Novo Nordisk A/S, priority 2012, published 2015).

Numbered stars: 1 amine (or outer) side, 2 acyl side, 3 side chain; on linkers, the order of the positions; unused ones are H or OH. Side chains are listed from the residue outwards. Peptide text beside a SMILES is read from it. * marks the point of attachment. C18 diacid = O=C(O)CCCCCCCCCCCCCCCCC(=O)*; γGlu = O=C(O)[C@H](CCC(=O)[*:2])N[*:1]; AEEA = NCCOCCOCC(=O)O

The data set is described as follows: Assay (II) PK i.v. minipig, in vivo half-life. The arrangement: species or system Göttingen mini-pigs. As to conditions: male, Göttingen, minipig, iv, Half-life minipig, Assay (II). In outline:
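Plasma levels after a single 6 nmol/kg intravenous dose in five male Göttingen mini-pigs were measured by TFC/LC/MS/MS against spiked-plasma calibration, sampling to 240 h. Vehicle: 50 mM K2HPO4, 0.05% tween 80, pH 8.0. Individual profiles analysed non-compartmentally for half-life.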
As for `CC[C@H](C)[C@H](NC(=O)[C@H](Cc1ccc(O)cc1)NC(=O)[C@H](CCCNC(=N)N)NC(=O)[C@H](CCCNC(=N)N)NC(=O)[C@H](CC(C)C)NC(=O)[C@H](CC(=O)O)NC(=O)[C@H](C)NC(=O)[C@H](CCCCNC(=O)COCCOCCNC(=O)COCCOCCNC(=O)CC[C@H](NC(=O)CCCCCCCCCCCCCCCCC(=O)O)C(=O)O)NC(=O)[C@H](Cc1ccc(O)cc1)NC(=O)[C@H](CCC(N)=O)NC(=O)[C@H](C)NC(=O)[C@H](CCSC)NC(=O)[C@H](CCC(N)=O)NC(=O)[C@H](CCC(=O)O)NC(=O)[C@@H]1CCCN1C(=O)[C@@H](NC(=O)[C@H](C)NC(=O)[C@H](CC(N)=O)NC(=O)[C@H](CC(=O)O)NC(=O)CNC(=O)[C@@H]1CCCN1C(=O)[C@H](Cc1ccc(O)cc1)NC(=O)[C@@H](NC(=O)[C@@H]1CCCN1C(=O)[C@H](CCC(=O)O)NC(=O)[C@@H](N)CC(C)C)C(C)C)[C@@H](C)O)C(=O)N[C@@H](CC(N)=O)C(=O)N[C@@H](CCSC)C(=O)N[C@@H](CC(C)C)C(=O)N[C@H](C(=O)N[C@@H](CCCNC(=N)N)C(=O)N1CCC[C@H]1C(=O)N[C@@H](CCCNC(=N)N)C(=O)N[C@@H](Cc1ccc(O)cc1)C(N)=O)[C@@H](C)O` [Compound AU] (H-LEPVYPGDNATPEQMAQYK([AEEA-AEEA-γGlu-C18 diacid])ADLRRYINMLTRPRY-NH2; N-terminus and C-terminus assumed), the half-life was 59 h. The figure for `CC[C@H](C)[C@H](NC(=O)[C@H](Cc1ccc(O)cc1)NC(=O)[C@H](CCCNC(=N)N)NC(=O)[C@H](CCCNC(=N)N)NC(=O)[C@H](CC(C)C)NC(=O)[C@H](CC(=O)O)NC(=O)[C@H](C)NC(=O)[C@H](C)NC(=O)[C@H](CCCCNC(=O)COCCOCCNC(=O)COCCOCCNC(=O)CC[C@H](NC(=O)CCCCCCCCCCCCCCCCC(=O)O)C(=O)O)NC(=O)[C@H](CCC(N)=O)NC(=O)[C@H](C)NC(=O)[C@H](CCSC)NC(=O)[C@H](CCC(N)=O)NC(=O)[C@H](CCC(=O)O)NC(=O)[C@@H]1CCCN1C(=O)[C@@H](NC(=O)[C@H](C)NC(=O)[C@H](CC(N)=O)NC(=O)[C@H](CC(=O)O)NC(=O)CNC(=O)[C@@H]1CCCN1C(=O)[C@H](Cc1ccc(O)cc1)NC(=O)[C@@H](NC(=O)[C@@H]1CCCN1C(=O)[C@H](CCC(=O)O)NC(=O)[C@@H](N)CC(C)C)C(C)C)[C@@H](C)O)C(=O)N[C@@H](CC(N)=O)C(=O)N[C@@H](CCSC)C(=O)N[C@@H](CC(C)C)C(=O)N[C@H](C(=O)N[C@@H](CCCNC(=N)N)C(=O)N1CCC[C@H]1C(=O)N[C@@H](CCCNC(=N)N)C(=O)N[C@@H](Cc1ccc(O)cc1)C(N)=O)[C@@H](C)O` [Compound AV] (H-LEPVYPGDNATPEQMAQK([AEEA-AEEA-γGlu-C18 diacid])AADLRRYINMLTRPRY-NH2; N-terminus and C-terminus assumed) is 28 h; for `CC[C@H](C)[C@H](NC(=O)[C@H](Cc1ccc(O)cc1)NC(=O)[C@H](CCCNC(=N)N)NC(=O)[C@H](CCCNC(=N)N)NC(=O)[C@H](CC(C)C)NC(=O)[C@H](CC(=O)O)NC(=O)[C@H](C)NC(=O)[C@H](C)NC(=O)[C@H](Cc1ccc(O)cc1)NC(=O)[C@H](CCCCNC(=O)COCCOCCNC(=O)COCCOCCNC(=O)CC[C@H](NC(=O)CCCCCCCCCCCCCCCCC(=O)O)C(=O)O)NC(=O)[C@H](C)NC(=O)[C@H](CCSC)NC(=O)[C@H](CCC(N)=O)NC(=O)[C@H](CCC(=O)O)NC(=O)[C@@H]1CCCN1C(=O)[C@@H](NC(=O)[C@H](C)NC(=O)[C@H](CC(N)=O)NC(=O)[C@H](CC(=O)O)NC(=O)CNC(=O)[C@@H]1CCCN1C(=O)[C@H](Cc1ccc(O)cc1)NC(=O)[C@@H](NC(=O)[C@@H]1CCCN1C(=O)[C@H](CCC(=O)O)NC(=O)[C@@H](N)CC(C)C)C(C)C)[C@@H](C)O)C(=O)N[C@@H](CC(N)=O)C(=O)N[C@@H](CCSC)C(=O)N[C@@H](CC(C)C)C(=O)N[C@H](C(=O)N[C@@H](CCCNC(=N)N)C(=O)N1CCC[C@H]1C(=O)N[C@@H](CCCNC(=N)N)C(=O)N[C@@H](Cc1ccc(O)cc1)C(N)=O)[C@@H](C)O` [Compound AW] (H-LEPVYPGDNATPEQMAK([AEEA-AEEA-γGlu-C18 diacid])YAADLRRYINMLTRPRY-NH2; N-terminus and C-terminus assumed) it is 33 h; for `CC[C@H](C)[C@H](NC(=O)[C@H](Cc1ccc(O)cc1)NC(=O)[C@H](CCCNC(=N)N)NC(=O)[C@H](CCCNC(=N)N)NC(=O)[C@H](CC(C)C)NC(=O)[C@H](CC(=O)O)NC(=O)[C@H](C)NC(=O)[C@H](C)NC(=O)[C@H](Cc1ccc(O)cc1)NC(=O)[C@H](CCC(N)=O)NC(=O)[C@H](C)NC(=O)[C@H](CCCCNC(=O)COCCOCCNC(=O)COCCOCCNC(=O)CC[C@H](NC(=O)CCCCCCCCCCCCCCCCC(=O)O)C(=O)O)NC(=O)[C@H](CCC(N)=O)NC(=O)[C@H](CCC(=O)O)NC(=O)[C@@H]1CCCN1C(=O)[C@@H](NC(=O)[C@H](C)NC(=O)[C@H](CC(N)=O)NC(=O)[C@H](CC(=O)O)NC(=O)CNC(=O)[C@@H]1CCCN1C(=O)[C@H](Cc1ccc(O)cc1)NC(=O)[C@@H](NC(=O)[C@@H]1CCCN1C(=O)[C@H](CCC(=O)O)NC(=O)[C@@H](N)CC(C)C)C(C)C)[C@@H](C)O)C(=O)N[C@@H](CC(N)=O)C(=O)N[C@@H](CCSC)C(=O)N[C@@H](CC(C)C)C(=O)N[C@H](C(=O)N[C@@H](CCCNC(=N)N)C(=O)N1CCC[C@H]1C(=O)N[C@@H](CCCNC(=N)N)C(=O)N[C@@H](Cc1ccc(O)cc1)C(N)=O)[C@@H](C)O` [Compound AY] (H-LEPVYPGDNATPEQK([AEEA-AEEA-γGlu-C18 diacid])AQYAADLRRYINMLTRPRY-NH2; N-terminus and C-terminus assumed) it is 25 h.

For `CC[C@H](C)[C@H](NC(=O)[C@H](Cc1ccc(O)cc1)NC(=O)[C@H](CCCNC(=N)N)NC(=O)[C@H](CCCNC(=N)N)NC(=O)[C@H](CC(C)C)NC(=O)[C@H](CC(=O)O)NC(=O)[C@H](C)NC(=O)[C@H](C)NC(=O)[C@H](Cc1ccc(O)cc1)NC(=O)[C@H](CCC(N)=O)NC(=O)[C@H](C)NC(=O)[C@H](CCSC)NC(=O)[C@H](CCCCNC(=O)COCCOCCNC(=O)COCCOCCNC(=O)CC[C@H](NC(=O)CCCCCCCCCCCCCCCCC(=O)O)C(=O)O)NC(=O)[C@H](CCC(=O)O)NC(=O)[C@@H]1CCCN1C(=O)[C@@H](NC(=O)[C@H](C)NC(=O)[C@H](CC(N)=O)NC(=O)[C@H](CC(=O)O)NC(=O)CNC(=O)[C@@H]1CCCN1C(=O)[C@H](Cc1ccc(O)cc1)NC(=O)[C@@H](NC(=O)[C@@H]1CCCN1C(=O)[C@H](CCC(=O)O)NC(=O)[C@@H](N)CC(C)C)C(C)C)[C@@H](C)O)C(=O)N[C@@H](CC(N)=O)C(=O)N[C@@H](CCSC)C(=O)N[C@@H](CC(C)C)C(=O)N[C@H](C(=O)N[C@@H](CCCNC(=N)N)C(=O)N1CCC[C@H]1C(=O)N[C@@H](CCCNC(=N)N)C(=O)N[C@@H](Cc1ccc(O)cc1)C(N)=O)[C@@H](C)O` [Compound AZ] (H-LEPVYPGDNATPEK([AEEA-AEEA-γGlu-C18 diacid])MAQYAADLRRYINMLTRPRY-NH2; N-terminus and C-terminus assumed), the half-life is 20 h. The figure for `CC[C@H](C)[C@H](NC(=O)[C@H](Cc1ccc(O)cc1)NC(=O)[C@H](CCCNC(=N)N)NC(=O)[C@H](CCCNC(=N)N)NC(=O)[C@H](CC(C)C)NC(=O)[C@H](CC(=O)O)NC(=O)[C@H](C)NC(=O)[C@H](C)NC(=O)[C@H](Cc1ccc(O)cc1)NC(=O)[C@H](CCC(N)=O)NC(=O)[C@H](C)NC(=O)[C@H](CCSC)NC(=O)[C@H](CCC(N)=O)NC(=O)[C@H](CCC(=O)O)NC(=O)[C@@H]1CCCN1C(=O)[C@@H](NC(=O)[C@H](C)NC(=O)[C@H](CC(N)=O)NC(=O)[C@H](CC(=O)O)NC(=O)CNC(=O)[C@@H]1CCCN1C(=O)[C@H](Cc1ccc(O)cc1)NC(=O)[C@@H](NC(=O)[C@@H]1CCCN1C(=O)[C@H](CCC(=O)O)NC(=O)[C@H](CC(C)C)NC(=O)[C@@H]1CCCN1)C(C)C)[C@@H](C)O)C(=O)N[C@@H](CC(N)=O)C(=O)N[C@@H](CCSC)C(=O)N[C@@H](CC(C)C)C(=O)N[C@H](C(=O)N[C@@H](CCCNC(=N)N)C(=O)N[C@@H](CCCCNC(=O)COCCOCCNC(=O)COCCOCCNC(=O)CC[C@H](NC(=O)CCCCCCCCCCCCCCCCC(=O)O)C(=O)O)C(=O)N[C@@H](CCCNC(=N)N)C(=O)N[C@@H](Cc1ccc(O)cc1)C(N)=O)[C@@H](C)O` [Compound A] (H-PLEPVYPGDNATPEQMAQYAADLRRYINMLTRK([AEEA-AEEA-γGlu-C18 diacid])RY-NH2; N-terminus and C-terminus assumed) is 99 h; for `CC[C@H](C)[C@H](NC(=O)[C@H](Cc1ccc(O)cc1)NC(=O)[C@H](CCCNC(=N)N)NC(=O)[C@H](CCCNC(=N)N)NC(=O)[C@H](CC(C)C)NC(=O)[C@H](CC(=O)O)NC(=O)[C@H](C)NC(=O)[C@H](C)NC(=O)[C@H](Cc1ccc(O)cc1)NC(=O)[C@H](CCC(N)=O)NC(=O)[C@H](C)NC(=O)[C@H](CCSC)NC(=O)[C@H](CCC(N)=O)NC(=O)[C@H](CCCCNC(=O)COCCOCCNC(=O)COCCOCCNC(=O)CC[C@H](NC(=O)CCCCCCCCCCCCCCCCC(=O)O)C(=O)O)NC(=O)[C@@H]1CCCN1C(=O)[C@@H](NC(=O)[C@H](C)NC(=O)[C@H](CC(N)=O)NC(=O)[C@H](CC(=O)O)NC(=O)CNC(=O)[C@@H]1CCCN1C(=O)[C@H](Cc1ccc(O)cc1)NC(=O)[C@@H](NC(=O)[C@@H]1CCCN1C(=O)[C@H](CCC(=O)O)NC(=O)[C@@H](N)CC(C)C)C(C)C)[C@@H](C)O)C(=O)N[C@@H](CC(N)=O)C(=O)N[C@@H](CCSC)C(=O)N[C@@H](CC(C)C)C(=O)N[C@H](C(=O)N[C@@H](CCCNC(=N)N)C(=O)N1CCC[C@H]1C(=O)N[C@@H](CCCNC(=N)N)C(=O)N[C@@H](Cc1ccc(O)cc1)C(N)=O)[C@@H](C)O` [Compound BA] (H-LEPVYPGDNATPK([AEEA-AEEA-γGlu-C18 diacid])QMAQYAADLRRYINMLTRPRY-NH2; N-terminus and C-terminus assumed) it is 24 h.
